Data on two molecules can be found in US11319344B2, “Non-membrane disruptive P53 activating stapled peptides” (AGENCY FOR SCIENCE, TECHNOLOGY AND RESEARCH, priority 2015, dated 2022).

Where two headings read alike, the source gives them in different places.

Data set [1] deals with N-terminal domain of Mdm2 (1-125) (Homo sapiens, UniProt Q00987). Put plainly: Competitive fluorescence anisotropy titration (apparent Kd). The settings on record: ratio to YS-01/YS-02 Kd.
Protocol: In this assay, a N-terminally FAM labelled peptide of the sequence [sequence]
The cells expressing the Mdm2 GST fusion construct were grown in LB medium at 37° C. to an OD600 of ˜0.6 and induction was carried out with 1 mM isopropyl β-D-1-thiogalactopyranoside (IPTG) at room temperature. Cells were harvested by centrifugation and the cell pellets were resuspended in 50 mM Tris pH 8.0, 10% sucrose and then sonicated. The sonicated sample was centrifuged for 60 minutes at 17,000 g at 4° C. […] The column was then further washed by 6 volumes of wash buffer. Mdm2 were then purified from the column by cleavage with PreScission protease. 10 units of PreScission protease, in one column volume of PBS with 1 mM DTT buffer, were injected onto the column. The cleavage reaction was allowed to proceed overnight at 4° C. The cleaved protein was then eluted of the column with wash buffer. Protein fractions were analysed with SDS-PAGE and concentrated using a Centricon (3.5 kDa molecular weight cut-off (MWCO)) concentrator. The Mdm2 protein sample was then dialyzed into a buffer solution containing 20 mM Bis-Tris, pH 6.5, 0.05M NaCl with 1 mM DTT and loaded onto a monoS column pre-equilibrated in buffer A (20 mM Bis-Tris, pH 6.5, 1 mM DTT). The column was then washed in 6 column volumes of buffer A and bound protein was eluted with a linear gradient of 1M NaCl over 25 column volumes. Protein fractions were analysed with sodium dodecyl sulfate-polyacrylamide gel electrophoresis (SDS-PAGE) and concentrated using a Centricon (3.5 kDa molecular weight cut-off (MWCO)) concentrator.
Apparent dissociation constant (Kd) values were determined for a variety of molecules via competitive fluorescence anisotropy experiments. […] The competing molecules were then titrated against the complex of the FAM labelled peptide and protein. Apparent dissociation constant (Kd) values were determined by fitting the experimental data to the equations shown below:
[L]st and [L]t denote labelled ligand and total unlabelled ligand input concentrations, respectively. Kd2 is the dissociation constant of the interaction between the unlabelled ligand and the protein. In all competitive types of experiments, it is assumed that [P]t>[L]st, otherwise considerable amounts of free labelled ligand would always be present and would interfere with measurements. […] The FAM-labelled peptide was dissolved in dimethyl sulfoxide (DMSO) at 1 mM and diluted into experimental buffer. Readings were carried out with a Envision Multilabel Reader. […] All titrations were carried out in triplicate. Curve-fitting was carried out using Prism 4.0 (GraphPad). […]
Data set [2] has as its system p53 transcriptional activity in T22 cells. The experiment in a line: T22 p53 β-galactosidase based reporter assay. It counts as cell-based, murine. The settings on record: for IC50: T22 p53 reporter assay, 18 h. On the procedure:
The YS-01/04 peptides were screened in a murine T22-derived p53 reporter assay, either with or without fetal calf serum, to assess their ability to induce p53 transcriptional activity in intact cells (Table 1 and FIG. 3).
T22 cells, which were stably transfected with a p53 responsive β-galactosidase reporter, were seeded into 96-well plate at a cell density of 8000 cells per well. Cells were also maintained in Dulbecco's Minimal Eagle Medium (DMEM) with 10% fetal bovine serum (FBS) and penicillin/streptomycin. […] Measurements were carried out using a Safire II multiplate reader. Experiments were carried out independently twice.

Data set [3] is described as follows: Circular dichroism spectroscopy (helicity in solution). The settings on record: peptide unbound in solution. It counts as physicochemical. (Circular dichroism is widely used to follow secondary structure.)
Data set [4] relates to p53 and Mdm2 protein levels in T22 cells. The experiment in a line: T22 western blot analysis of p53 and Mdm2 protein levels. The following applies: 25 μM and 50 μM, 18 h, with or without fetal calf serum. In kind it is cell-based, Murine. An excerpt: The YS-01/04 peptides were screened in a murine T22-derived p53 reporter assay, either with or without fetal calf serum, to assess their ability to induce p53 transcriptional activity in intact cells (Table 1 and FIG. 3). […] Considering the similar affinities that these peptides have for Mdm2, the difference in their IC50 values must reflect a change in their ability to enter the cell. This difference is observed for both sets of peptides (YS-01 and YS-02, YS-03 and YS-04, FIG. 3), which implies that the hydroxyl group of the C-terminal Y30 is responsible for the reduced efficiency of intracellular uptake. p53 and Mdm2 protein levels were then directly probed using western blot analysis. T22 cells were treated with 25 μM and 50 μM of YS-03 either with or without the presence of fetal calf serum (FIG. 4).
T22 Murine cells were seeded into 12 well plates at a cell density of 150000 cells per well and incubated overnight. Cells were also maintained in DMEM media with 10% fetal bovine serum (FBS) and penicillin/streptomycin. Cells were treated with various compounds/vehicle controls at the time points and concentrations indicated either in DMEM media with or without 10% FBS. Cells were rinsed with PBS and then harvested in 50 μl of 1×NuPAGE LDS sample buffer (NP0008). […] Protein concentrations were measured by BCA assay. […]
In general terms: A western blot detects proteins with antibodies after separation by electrophoresis.

Data set [5] concerns p53 transcriptional activity in ARN8 cells. The experiment in a line: ARN8 β-galactosidase based p53 reporter assay. It counts as cell-based, Human. The settings on record: serum free, 18 h. On the procedure: ARN8 cells contain the same β-galactosidase gene under the control of a p53 promoter that is stably transfected into T22 cells. […] The YS-07 and YS-09 titrations were again repeated and the lactate dehydrogenase leakage from ARN8 cells measured instead (FIGS. 8c and 8d).
ARN8 cells, which were stably transfected with a p53 responsive β-galactosidase reporter, were seeded into 96-well plate at a cell density of 8000 cells per well. Cells were also maintained in Dulbecco's Minimal Eagle Medium (DMEM) with 10% fetal bovine serum (FBS) and penicillin/streptomycin. […] Measurements were carried out using a Safire II multiplate reader. Experiments were carried out independently twice.
On the technique in general: A reporter such as luciferase makes a cellular process visible.

The test system of data set [6] is T22 cells. The experiment in a line: Lactate dehydrogenase release assay, T22 cells. In kind it is cell-based. The settings on record: 2 h, serum free. As for the experimental part:
(§1) The stapled YS-01/04 peptides were also screened for their ability to perturb the cell membrane wall of T22 and ARN8 cells and release cytosolic lactate dehydrogenase (LDH). An effect that is regarded as undesirable as this may indicate that the peptide is non-specifically toxic to different cell types. A short 2 hour time treatment period is used for this assay as it is assumed that perforation of the cell membrane occurs […] for cell programmed death. […] The lactate dehydrogenase leakage measured was much greater in ARN8 cells than T22 cells, showing that different cells vary in their sensitivities to the membrane disruptive properties of YS-03. […] This implies that p53 activation, which is also supported by the data for YS-04, does occur in the absence of membrane disruption and that the biological activity observed for is not a direct consequence of cellular toxicity.
(§2) T22 cells or ARN8 cells, both of which were stably transfected with a p53 responsive β-galactosidase reporter, were seeded into a 96-well plate at a cell density of 5000 cells per well. Cells were also maintained in Dulbecco's Minimal Eagle Medium (DMEM) with 10% fetal bovine serum (FBS) and penicillin/streptomycin. The cells were incubated for 24 hours and then treated with compounds/peptide for 2 hours in DMEM with or without 10% FBS. Cytosolic lactate dehydrogenase release was detected using the non-radioactive cytotoxicity Assay kit (Promega) as per manufacturer's instructions. Measurements were carried out using an Envision multiplate reader.

For data set [7], the system named is ARN8 cells. Put plainly: Lactate dehydrogenase release assay, ARN8 cells. It counts as cell-based. The following applies: 2 h, serum free. On the procedure: as §1, §2
Setting [8] is: absence of serum, read-out: T22 IC50 (0% μM).
Setting [9] is: presence of 10% fetal calf serum, read-out: T22 Ic50 (10% μM).

N-terminal domain of Mdm2 (1-125), sequence (Q00987 1-125): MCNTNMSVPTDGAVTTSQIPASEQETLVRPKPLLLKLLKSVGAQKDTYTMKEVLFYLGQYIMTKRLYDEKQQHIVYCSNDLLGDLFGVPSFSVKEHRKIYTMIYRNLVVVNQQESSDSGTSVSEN

For the molecule `CC(=O)N[C@H](C(=O)N[C@@H](CO)C(=O)N[C@@H](Cc1ccccc1)C(=O)NC1(C)CCCCCCC=CCCCC(C)(C(=O)N[C@@H](CCC(=O)O)C(=O)N[C@@H](CC(N)=O)C(=O)N[C@@H](Cc2ccccc2)C(N)=O)NC(=O)[C@H](CC(C)C)NC(=O)[C@H](CC(C)C)NC(=O)[C@H](C)NC(=O)[C@H](Cc2c[nH]c3ccccc23)NC(=O)[C@H](Cc2ccc(O)cc2)NC(=O)[C@H](CCC(=O)O)NC1=O)[C@@H](C)O` (some centres unmarked) [YS-03, Ac-^17TSFX8EYWALLS5ENF^30-NH2], in data set [1], the “Kd weaker than the i,i+4 analogue peptides (YS-01 and YS-02)” value is on record as “approximately 2 fold”. In addition, the figures for the IC50 in data set [2] (setting [8]) and in data set [2] (setting [9]) were 4.57 µM and 54.7 µM, respectively. Moreover, in data set [2] (with and without serum), the “ability to induce p53 activity in T22 reporter assay” value is “greater potency in the T22 assay than YS-01 and YS-02”. Also, the “helicity in solution (CD spectra)” value in data set [3] is “significantly more helical in character in solution than YS-01 and YS-02”. The “p53 and Mdm2 protein levels (western blot)” value in data set [4] is “induction of p53 and Mdm2 protein levels”.

On to `CC(=O)N[C@H](C(=O)N[C@@H](CO)C(=O)N[C@@H](Cc1ccccc1)C(=O)N[C@]1(C)CCCCCCC=CCCC[C@@](C)(C(N)=O)NC(=O)[C@H](CC(C)C)NC(=O)[C@H](CC(C)C)NC(=O)[C@H](C)NC(=O)[C@H](Cc2c[nH]c3ccccc23)NC(=O)[C@H](Cc2ccc(O)cc2)NC(=O)[C@H](CCC(=O)O)NC1=O)[C@@H](C)O` [sMTide-02, Ac-TSFX8EYWALLS5-NH2, reference compound], for which the “p53 activation (β-galactosidase activity) in ARN8 cells” value in data set [5] is recorded as “poorly induces p53 activity”. The “cytosolic lactate dehydrogenase (LDH) release” value in data set [6] is “significant amounts of lactate dehydrogenase leakage”; in data set [7] it was “large amounts of lactate dehydrogenase leakage”. Also, the half-maximal inhibitory concentration (IC50) (as a rule, the concentration that gives 50% inhibition) in data set [2] (setting [8]) came to 2.75 µM; in data set [2] (setting [9]), 17.9 µM.
